{
  "source": "patent US20040180817A1",
  "about": "“Neuropathologies associated with expression of tnf-$g (a)” (priority 2001, published 2004)",
  "key": {"[1]": {"test_system": "rrTNF-α-induced reduction in striatal rCBV", "assay": "Effect of ET receptor antagonist on rrTNF-α-induced acute rCBV reduction (MRI)", "assay_type": "in vivo, rat", "conditions": "5 mg/kg i.v. 10 min prior to 1.5 μg intrastriatal rrTNF-α; 1.5 h", "method": "(§1) Adult male Wistar rats (Harlan-Olac, UK) were anaesthetised with fentanyl/fluanisone and midazolam (0.68 ml/kg of each). Using a 50 μm-tipped glass pipette, 1 μl rat recombinant TNF-α (NIBSC, Potters Bar, UK) solution was injected stereotaxically 1 mm anterior and 3 mm lateral to Bregma, at a depth of 4 mm into the left striatum. Animals were injected with either 0.3 μg/μl or 1.5 μg/μl of TNF-A, each in 0.1% BSA in low-endotoxin saline, or with vehicle solution only. Animals were positioned in the MRI probe (3.4 cm i.d. Alderman-Grant resonator) using a bite-bar. During MRI, anaesthesia was maintained with 0.8-1.2% halothane in 50% N2O/50% O2, ECG was monitored non-invasively and body temperature was maintained at […]. All procedures were approved by the United Kingdom Home Office.\n(§2) Magnetic resonance images were acquired using a 300 MHz Varian Inova spectrometer (Varian, Palo Alto, Calif.). […] Diffusion gradients were applied separately along three orthogonal axes and apparent diffusion coefficient (ADC) “trace” maps were calculated^40. […]\n(§3) Regions of Interest (ROI) encompassing the striatum were defined on T2-weighted images in each hemisphere, and applied to all images or calculated data maps for quantitation. For the rCBV maps and T2-weighted images the data are expressed as a ratio of injected/non-injected striatal values. […]"}, "[2]": {"test_system": "rat brain striatum (tissue water diffusion)", "assay": "Diffusion weighted MRI: apparent diffusion coefficient (ADC) of tissue water in striatum", "assay_type": "in vivo", "conditions": "24 h", "method": "as §1, §2, §3"}, "[3]": {"test_system": "blood-cerebrospinal fluid barrier and blood-brain barrier", "assay": "Contrast-enhanced T1-weighted MRI of B-CSF-B / BBB permeability", "assay_type": "in vivo, rat", "method": "as §1\nMagnetic resonance images were acquired using a 300 MHz Varian Inova spectrometer (Varian, Palo Alto, Calif.). Anatomical images were acquired using a T2-weighted sequence (repetition time, TR, 3 sec; echo time, TE, 80 msec). […] Diffusion gradients were applied separately along three orthogonal axes and apparent diffusion coefficient (ADC) “trace” maps were calculated^40. […]"}},
  "note": "Entries after “also recorded” stand apart in the source; their conditions may differ.",
  "data": [
    {"smiles": "COc1cccc(Oc2c(NS(=O)(=O)c3ccc(C(C)(C)C)cc3)ncnc2OCCO)c1", "note": "[Ro 46-2005]", "values": [
      {"measurement": "effect on rrTNF-α-induced reduction in striatal rCBV", "setting": "[1]", "value": "No significant differences; also recorded: eliminated"},
      {"measurement": "Apparent Diffusion Coefficient, Right (control) striatum", "setting": "[2]; Ro 46-2005 i.v. pre-treatment + 1.5 μg rrTNF-α intrastriatal (left)", "value": "7.23 ± 0.17 ×10^−4 mm^2/sec"},
      {"measurement": "effect of pre-treatment on TNF-α-induced reduction in ADC", "setting": "[2]; pre-treatment before 1.5 μg rrTNF-α", "value": "not affected"},
      {"measurement": "BBB breakdown: increase in signal intensity of injected striatum", "setting": "[3]; Ro 46-2005 pre-treatment + 1.5 g TNF-α (so in the source), 24 h", "value": "10.3±2.7", "unit": "%"},
      {"measurement": "effect of pre-treatment on TNF-α-induced B-CSF-B breakdown", "setting": "[3]; pre-treatment before TNF-α, 1.5 h", "value": "did not significantly alter"}
    ]}
  ]
}
